# Measured values as given in patent US12391946B2, “Use of a Janus kinase inhibitor and a telomerase inhibitor for the treatment of myeloproliferative neoplasms” (priority 2019, dated 2025).
# Like-named read-outs stand apart in the source and are kept apart here.
# Legend:
# Type in all cases: cell-based, human
# [1] = test system: MF splenic CD34+ cells; assay: In vitro treatment of MF splenic CD34+ cells with various doses of Rux; details: for IC50: Homo sapiens, concentration of Rux achieving 50% inhibition
# Experimental: (§1) Treatment of MF and normal CD34^+ cells with doses of Rux and Imetelstat alone and in combination. […] For simultaneous combination treatment, CD34^+ cells were exposed to Rux and imetelstat for 3 days and were washed. Cells were then exposed to imetelstat again for additional 4 days or 11 days. For sequential combination treatment, CD34^+ cells were incubated in the presence of Rux alone for 3 days, followed by imetelstat alone for 7 or 14 days. For the three treatment strategies containing imetelstat, cells were dosed in total three times with imetelstat. Three days after Rux alone treatment and 7 or 14 days after each treatment with imetelstat, cells were enumerated and stained with CD34, a lineage cocktail, and CD15 mAbs and analyzed flow cytometrically. The absolute numbers of Lin^− CD34^+ (phenotypically defined HSC/HPC) and CD15^+CD34^− (myeloid) cells generated in the cultures were calculated by multiplying the total viable cell numbers by the percentage of CD34^+Lin^− and CD15^+CD34^− cells. In addition, parallel cultures to which MM or vehicle alone was added were performed.
# [2] = test system: CB CD34+ cells; assay: In vitro treatment of CB CD34+ cells with various doses of Rux; details: various doses of Rux (50-500 nM)
# Experimental: as §1
# [3] = test system: MF splenic CD34+ cells; assay: In vitro treatment of MF splenic CD34+ cells with Rux and imetelstat alone and in combination (flow cytometry, HPC assays); details: Rux alone 50 nM 3 days
# Experimental: as §1, with “In addition, parallel cultures to which MM or vehicle alone was added were performed.” left out
# HPC assays. A fraction of cells harvested from the above cultures were also analyzed in methylcellulose to which a cytokine cocktail was added according to the manufacturer's instructions (StemCell Technologies). […] Individual CFU-GM colonies (20-38 colonies/treatment group/patient) were plucked and analyzed for the presence of JAK2V617F using a nested allele-specific PCR. […]
structure (smiles),measurement,setting,value
"N#CC[C@H](C1CCCC1)n1cc(-c2ncnc3[nH]ccc23)cn1 [Rux, (3R)-3-Cyclopentyl-3-[4-(7H-pyrrolo[2,3-d]pyrimidin-4-yl)pyrazol-1-yl]propanenitrile]",IC50,"[1]; CD34+ cell, read-out: 50% inhibition of MF CD34+ cell proliferation",150 nM
same,IC50,"[1]; CFU-GM, MF CD34+ cells, read-out: 50% inhibition of CFU-GM formation",150 nM
same,absolute number of MF splenic CD34+ cells,[1]; various doses of Rux (50-500 nM),decreased in a dose dependent fashion
same,number of CB CD34+ cells,[2],decreased only to a limited degree
same,number of mature myeloid cells generated in cultures of splenic MF CD34+ cells,[3]; P=0.001,reduced
same,numbers of assayable HPCs (CFU-GM+BFU-E+CFU-GEMM) generated in cultures of splenic MF CD34+ cells,[3]; P=9.69E-06,reduced
